Experimental findings from patent publication US9517208B2, “Abuse-deterrent dosage forms” (PURDUE PHARMA L.P., priority 2013, dated 2016) are described below.

The nature of this series: Osmolality of mixtures of crushed tablets (or drug solution) in distilled water, Osmometer Model 3250. The series is classed as physicochemical. Conditions: 1 mg/ml, without dextrose, sodium chloride and potassium phosphate dibasic (control). The procedure:
The osmolality of the resulting solution may be measured by using an osmometer (e.g., Advanced® Osmometer Model 3250, manufactured by Advanced Instruments, Inc., the User's Guide (3255 Rev13 042710) of which is herein incorporated by reference).
To determine whether mixtures formed by crushing tablets formulated prior to the present invention and mixing the crushed tablets with 3 mL or 5 mL of distilled water are hypertonic, a 30 mg Roxicodone® tablet^1 (oxycodone hydrochloride tablets USP) was crushed with a mortar and pestle to a powder. […]
To determine whether the mixtures (i.e., solutions, suspensions or gels) formed by crushing these tablets and mixing the crushed tablets with 3 mL or 5 mL of distilled water are hypertonic, one tablet of each formulation was crushed with a mortar and pestle. […] The osmolality of the resulting mixtures was measured using Osmometer Model 3250 manufactured by Advanced Instruments, Inc. The following results were obtained: […]
To determine whether the mixtures (i.e., solutions, suspensions or gels) formed by crushing these tablets and mixing the crushed tablets with 3 mL or 5 mL of distilled water are hypertonic, one tablet from each blend was crushed with a mortar and pestle to a powder. […] The osmolality of the resulting mixtures was measured twice using Osmometer Model 3250 manufactured by Advanced Instruments, Inc. The following results were obtained: […]

For `COc1ccc2c3c1O[C@H]1C(=O)CC[C@H]4[C@@H](C2)N(C)CC[C@]314.O=C(O)C(O)C(O)C(=O)O` [hydrocodone bitartrate], the Osmolality of solution is recorded as 4 mOsmol.
